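Dose response: 5 concentrations. Exposure: 48 h. Format: 96-well plates. Endpoint: linear interpolation; highest concentration if not reached. Abbreviation: GI50, concentration required for 50% inhibition of growth.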 Calls of active or inactive are those of the source. No stated cut-off is given here; in the data, active = GI50 up to about 1.1 µM and inactive = higher.
Experiments:
Assay in all cases: NCI tumour cell line growth inhibition, 48 h
EKVX = tested on: EKVX
SN12C = tested on: SN12C
MOLT-4 = tested on: MOLT-4
SF-539 = tested on: SF-539
NCI-H23 = tested on: NCI-H23
SK-MEL-28 = tested on: SK-MEL-28
HOP-62 = tested on: HOP-62
MDA-MB-435 = tested on: MDA-MB-435
RXF 393 = tested on: RXF 393
K562 = tested on: K562
ACHN = tested on: ACHN
T47D = tested on: T47D
786-0 = tested on: 786-0
HCC 2998 = tested on: HCC 2998
OVCAR-4 = tested on: OVCAR-4
SK-MEL-5 = tested on: SK-MEL-5
NCI/ADR-RES = tested on: NCI/ADR-RES
SF-295 = tested on: SF-295
SW-620 = tested on: SW-620
KM12 = tested on: KM12
COLO 205 = tested on: COLO 205
MCF7 = tested on: MCF7
MDA-MB-231 = tested on: MDA-MB-231
SK-MEL-2 = tested on: SK-MEL-2
OVCAR-3 = tested on: OVCAR-3
NCI-H522 = tested on: NCI-H522
NCI-H460 = tested on: NCI-H460
A549 = tested on: A549
HL-60 = tested on: HL-60
TK-10 = tested on: TK-10
OVCAR-5 = tested on: OVCAR-5
SR = tested on: SR
LOX IMVI = tested on: LOX IMVI
UACC-257 = tested on: UACC-257
M14 = tested on: M14
PC-3 = tested on: PC-3
DU-145 = tested on: DU-145
CAKI-1 = tested on: CAKI-1
HOP-92 = tested on: HOP-92
IGROV-1 = tested on: IGROV-1
SNB-19 = tested on: SNB-19
U-251 = tested on: U-251
HT-29 = tested on: HT-29
HCT-15 = tested on: HCT-15
HCT-116 = tested on: HCT-116
RPMI-8226 = tested on: RPMI-8226
CCRF-CEM = tested on: CCRF-CEM
SF-268 = tested on: SF-268
BT-549 = tested on: BT-549
Malme-3M = tested on: Malme-3M
Hs-578T = tested on: Hs-578T
OVCAR-8 = tested on: OVCAR-8
SK-OV-3 = tested on: SK-OV-3
UACC-62 = tested on: UACC-62
MDA-N = tested on: MDA-N
A498 = tested on: A498
NCI-H226 = tested on: NCI-H226
SNB-75 = tested on: SNB-75
UO-31 = tested on: UO-31

O=C1c2ccccc2C(=O)c2nn(N=P(CP(=Nn3nc4c(n3)C(=O)c3ccccc3C4=O)(c3ccccc3)c3ccccc3)(c3ccccc3)c3ccccc3)nc21
GI50 (EKVX): > 100 µM (inactive) | GI50 (SN12C): > 100 µM (inactive) | GI50 (MOLT-4): > 100 µM (inactive) | GI50 (SF-539): > 100 µM (inactive) | GI50 (NCI-H23): > 100 µM (inactive) | GI50 (SK-MEL-28): > 100 µM (inactive) | GI50 (HOP-62): > 100 µM (inactive) | GI50 (MDA-MB-435): > 100 µM (inactive) | GI50 (RXF 393): > 100 µM (inactive) | GI50 (K562): > 100 µM (inactive) | GI50 (ACHN): > 100 µM (inactive) | GI50 (T47D): > 100 µM (inactive) | GI50 (786-0): > 100 µM (inactive) | GI50 (HCC 2998): > 100 µM (inactive) | GI50 (OVCAR-4): > 100 µM (inactive) | GI50 (SK-MEL-5): > 100 µM (inactive) | GI50 (NCI/ADR-RES): > 100 µM (inactive) | GI50 (SF-295): > 100 µM (inactive) | GI50 (SW-620): > 100 µM (inactive) | GI50 (KM12): > 100 µM (inactive) | GI50 (COLO 205): > 100 µM (inactive) | GI50 (MCF7): > 100 µM (inactive) | GI50 (MDA-MB-231): > 100 µM (inactive) | GI50 (SK-MEL-2): > 100 µM (inactive) | GI50 (OVCAR-3): > 100 µM (inactive) | GI50 (NCI-H522): > 100 µM (inactive) | GI50 (NCI-H460): > 100 µM (inactive) | GI50 (A549): > 100 µM (inactive) | GI50 (HL-60): 36.3 µM (inactive) | GI50 (TK-10): > 100 µM (inactive) | GI50 (OVCAR-5): > 100 µM (inactive) | GI50 (SR): > 100 µM (inactive) | GI50 (LOX IMVI): > 100 µM (inactive) | GI50 (UACC-257): > 100 µM (inactive) | GI50 (M14): > 100 µM (inactive) | GI50 (PC-3): > 100 µM (inactive) | GI50 (DU-145): > 100 µM (inactive) | GI50 (CAKI-1): > 100 µM (inactive) | GI50 (HOP-92): 96.8 µM (inactive) | GI50 (IGROV-1): > 100 µM (inactive) | GI50 (SNB-19): > 100 µM (inactive) | GI50 (U-251): > 100 µM (inactive) | GI50 (HT-29): > 100 µM (inactive) | GI50 (HCT-15): > 100 µM | GI50 (HCT-116): > 100 µM (inactive) | GI50 (RPMI-8226): > 100 µM (inactive) | GI50 (CCRF-CEM): > 100 µM (inactive) | GI50 (SF-268): > 100 µM (inactive) | GI50 (BT-549): > 100 µM (inactive) | GI50 (Malme-3M): > 100 µM (inactive) | GI50 (Hs-578T): > 100 µM (inactive) | GI50 (OVCAR-8): > 100 µM (inactive) | GI50 (SK-OV-3): > 100 µM (inactive) | GI50 (UACC-62): > 100 µM (inactive) | GI50 (MDA-N): > 100 µM (inactive) | GI50 (A498): > 100 µM (inactive)

NCC(O)CSP(=O)(O)O (stereo not drawn)
GI50 (EKVX): > 100 µM (inactive) | GI50 (NCI-H226): > 100 µM (inactive) | GI50 (SN12C): > 100 µM (inactive) | GI50 (MOLT-4): > 100 µM (inactive) | GI50 (NCI-H23): > 100 µM (inactive) | GI50 (SK-MEL-28): > 100 µM (inactive) | GI50 (HOP-62): > 100 µM (inactive) | GI50 (MDA-MB-435): > 100 µM (inactive) | GI50 (RXF 393): > 100 µM (inactive) | GI50 (K562): > 100 µM (inactive) | GI50 (ACHN): > 100 µM (inactive) | GI50 (T47D): > 100 µM (inactive) | GI50 (786-0): > 100 µM (inactive) | GI50 (OVCAR-4): > 100 µM (inactive) | GI50 (SK-MEL-5): > 100 µM (inactive) | GI50 (NCI/ADR-RES): > 100 µM (inactive) | GI50 (SF-295): > 100 µM (inactive) | GI50 (SW-620): > 100 µM (inactive) | GI50 (KM12): > 100 µM (inactive) | GI50 (COLO 205): > 100 µM (inactive) | GI50 (MCF7): > 100 µM (inactive) | GI50 (MDA-MB-231): > 100 µM (inactive) | GI50 (SK-MEL-2): > 100 µM (inactive) | GI50 (OVCAR-3): > 100 µM (inactive) | GI50 (NCI-H522): > 100 µM (inactive) | GI50 (NCI-H460): > 100 µM (inactive) | GI50 (A549): > 100 µM (inactive) | GI50 (HL-60): > 100 µM (inactive) | GI50 (TK-10): > 100 µM (inactive) | GI50 (OVCAR-5): > 100 µM (inactive) | GI50 (SR): > 100 µM (inactive) | GI50 (LOX IMVI): > 100 µM (inactive) | GI50 (UACC-257): > 100 µM (inactive) | GI50 (M14): > 100 µM (inactive) | GI50 (PC-3): > 100 µM (inactive) | GI50 (DU-145): > 100 µM (inactive) | GI50 (CAKI-1): > 100 µM (inactive) | GI50 (HOP-92): > 100 µM (inactive) | GI50 (IGROV-1): > 100 µM (inactive) | GI50 (SNB-19): > 100 µM (inactive) | GI50 (U-251): > 100 µM (inactive) | GI50 (HT-29): > 100 µM (inactive) | GI50 (HCT-15): > 100 µM | GI50 (HCT-116): > 100 µM (inactive) | GI50 (RPMI-8226): > 100 µM (inactive) | GI50 (CCRF-CEM): > 100 µM (inactive) | GI50 (SNB-75): > 100 µM (inactive) | GI50 (SF-268): > 100 µM (inactive) | GI50 (BT-549): > 100 µM (inactive) | GI50 (Malme-3M): > 100 µM (inactive) | GI50 (Hs-578T): > 100 µM (inactive) | GI50 (OVCAR-8): > 100 µM (inactive) | GI50 (SK-OV-3): > 100 µM (inactive) | GI50 (UO-31): > 100 µM (inactive) | GI50 (UACC-62): > 100 µM (inactive) | GI50 (MDA-N): > 100 µM (inactive) | GI50 (A498): > 100 µM (inactive)

Reference: ChEMBL document CHEMBL1201862, “PubChem BioAssay data set” (2004)
